Reference: patent publication US20200255478A1, “NOVEL COMPOUNDS ACTIVATING THE NRF2 PATHWAY” (Almirall, S.A., priority 2017, published 2020)
Starred links: 1 amine or outer side, 2 acyl side, 3 side chain; linkers in the order of their positions; H or OH if unused. Positions of bridges follow the written chain, without caps; N, C: chain ends. Non-standard residues stand in square brackets, D forms with d. Residues, ends and D or L forms follow the SMILES beside them. X8 = O=C([C@H](Cc1cccc([*:3])c1)N[*:1])[*:2]; X3 = O=C([C@H](Cc1ccccc1[*:3])N[*:1])[*:2]; X7 = c1ccc(-c2ccccc2C[*:2])c(C[*:1])c1; oXylylene = c1ccc(C[*:2])c(C[*:1])c1; X2 = c1ccc2cc(C[*:2])c(C[*:1])cc2c1; X6 = c1ccc2nc(C[*:2])c(C[*:1])nc2c1

Biological target: Keap1-Maltose Binding Protein (MBP tag) (Homo sapiens, UniProt Q14145)
Assay: Nrf2-Keap1 HTRF (TR-FRET) binding assay: displacement of biotinylated ETGE peptide from Keap1-MBP
Settings: HTRF (TR-FRET); displacement of ETGE-biotin from Keap1-MBP; values banded into grades; read-out: Binding (IC50) ETGE-Keap1

Chain of Keap1-Maltose Binding Protein (MBP tag) (Q14145 whole entry): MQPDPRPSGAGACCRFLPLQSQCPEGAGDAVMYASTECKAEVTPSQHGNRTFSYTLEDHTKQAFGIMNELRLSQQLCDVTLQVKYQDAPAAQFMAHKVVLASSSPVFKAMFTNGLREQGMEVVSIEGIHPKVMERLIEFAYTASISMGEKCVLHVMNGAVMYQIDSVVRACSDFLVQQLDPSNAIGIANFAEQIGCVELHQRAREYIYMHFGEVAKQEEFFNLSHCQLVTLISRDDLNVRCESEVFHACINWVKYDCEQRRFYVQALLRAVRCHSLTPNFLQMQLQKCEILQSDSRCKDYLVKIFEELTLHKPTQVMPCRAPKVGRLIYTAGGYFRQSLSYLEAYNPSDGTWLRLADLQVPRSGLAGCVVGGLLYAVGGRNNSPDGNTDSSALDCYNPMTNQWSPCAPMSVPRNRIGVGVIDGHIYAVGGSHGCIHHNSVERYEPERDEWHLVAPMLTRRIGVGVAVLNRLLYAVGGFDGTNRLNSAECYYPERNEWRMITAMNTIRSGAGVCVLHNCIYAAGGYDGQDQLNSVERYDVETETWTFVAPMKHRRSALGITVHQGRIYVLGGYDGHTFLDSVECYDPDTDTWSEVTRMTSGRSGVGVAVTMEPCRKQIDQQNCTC

Row | SMILES | IC50 [nM]
1 | CC(C)C[C@H](NC(=O)[C@@H]1CSCc2ccccc2CSC[C@H](NC(=O)[C@H](CCC(N)=O)NC(=O)[C@@H](N)CC(C)C)C(=O)N[C@@H](CC(=O)O)C(=O)N[C@@H](C)C(=O)N[C@@H](CCC(=O)O)C(=O)N[C@@H]([C@@H](C)O)C(=O)NCC(=O)N[C@@H](CCC(=O)O)C(=O)N1)C(=O)N1CCC[C@H]1C(=O)O [Example 19, {[H-Leu-Gln-Cys(&^1)-Asp-Ala-Glu-Thr-Gly-Glu-Cys(&^2)-Leu-Pro-OH][&^1(1,2-phenylenediyl)dimethylene&^2]}] (H-LQCDAETGECLP-OH; linker 3-10 via oXylylene) | 1 to 100
2 | CC(=O)N[C@H]1CSCc2ccccc2CSC[C@@H](C(N)=O)NC(=O)[C@H](CCC(=O)O)NC(=O)CNC(=O)[C@H]([C@@H](C)O)NC(=O)[C@H](CCC(=O)O)NC(=O)[C@H](C)NC(=O)[C@H](CC(=O)O)NC1=O [Example 20, {[Acetyl-Cys(&^1)-Asp-Ala-Glu-Thr-Gly-Glu-Cys(&^2)-NH2][&^1(1,2-phenylenediyl)dimethylene&^2]}] | 1 to 100
3 | CC(=O)N[C@H]1Cc2cccc(c2)SC[C@@H](C(N)=O)NC(=O)[C@H](CCC(=O)O)NC(=O)CNC(=O)[C@H]([C@@H](C)O)NC(=O)[C@H](CCC(=O)O)NC(=O)[C@H](CCC(=O)O)NC(=O)[C@H](CC(=O)O)NC1=O [Example 22, Acetyl-Phe(m-&^1)-Asp-Glu-Glu-Thr-Gly-Glu-Cys(&^1)-NH2] (Ac-[X8]DEETGEC-NH2; thioether 1-8) | 1 to 100
4 | CC(=O)N[C@H]1Cc2ccccc2SC[C@@H](C(N)=O)NC(=O)[C@H](CCC(=O)O)NC(=O)CNC(=O)[C@H]([C@@H](C)O)NC(=O)[C@H](CCC(=O)O)NC(=O)[C@H](CCC(=O)O)NC(=O)[C@H](CC(=O)O)NC1=O [Example 23, Acetyl-Phe(o-&^1)-Asp-Glu-Glu-Thr-Gly-Glu-Cys(&^1)-NH2] (Ac-[X3]DEETGEC-NH2; thioether 1-8) | 1 to 100
5 | CC(=O)N[C@H]1CSCc2ccccc2-c2ccccc2CSC[C@@H](C(N)=O)NC(=O)[C@H](CCC(=O)O)NC(=O)CNC(=O)[C@H]([C@@H](C)O)NC(=O)[C@H](CCC(=O)O)NC(=O)[C@H](CCC(=O)O)NC(=O)[C@H](CC(=O)O)NC1=O [Example 24, {[Acetyl-Cys(&^1)-Asp-Glu-Glu-Thr-Gly-Glu-Cys(&^2)-NH2][&^1(1,1′-biphenyl)2,2′-diyldimethylene&^2]}] (Ac-CDEETGEC-NH2; linker 1-8 via X7) | 1 to 100
6 | CC(=O)N[C@H]1CSCc2nc3ccccc3nc2CSC[C@@H](C(N)=O)NC(=O)[C@H](CCC(=O)O)NC(=O)CNC(=O)[C@H]([C@@H](C)O)NC(=O)[C@H](CCC(=O)O)NC(=O)[C@H](CCC(=O)O)NC(=O)[C@H](CC(=O)O)NC1=O [Example 26, {[Acetyl-Cys(&^1)-Asp-Glu-Glu-Thr-Gly-Glu-Cys(&^2)-NH2][&^1(quinoxaline)2,3-diyldimethylene&^2]}] (Ac-CDEETGEC-NH2; linker 1-8 via X6) | 1 to 100
7 | CC(=O)N[C@H]1CSCc2cc3ccccc3cc2CSC[C@@H](C(N)=O)NC(=O)[C@H](CCC(=O)O)NC(=O)CNC(=O)[C@H]([C@@H](C)O)NC(=O)[C@H](CCC(=O)O)NC(=O)[C@H](CCC(=O)O)NC(=O)[C@H](CC(=O)O)NC1=O [Example 27, {[Acetyl-Cys(&^1)-Asp-Glu-Glu-Thr-Gly-Glu-Cys(&^2)-NH2][&^1(naphthalene)2,3-diyldimethylene&^2]}] (Ac-CDEETGEC-NH2; linker 1-8 via X2) | 1 to 100
8 | CCCCCCCCCCCCCCCCCC(=O)NCCC(=O)N[C@H]1CSCc2ccccc2CSC[C@@H](C(N)=O)NC(=O)[C@H](CCC(=O)O)NC(=O)CNC(=O)[C@H]([C@@H](C)O)NC(=O)[C@H](CCC(=O)O)NC(=O)[C@H](C)NC(=O)[C@H](CC(=O)O)NC1=O [Example 28, {[Stearyl-βAla-Cys(&^1)-Asp-Ala-Glu-Thr-Gly-Glu-Cys(&^2)-NH2][&^1(1,2-phenylenediyl)dimethylene&^2]}] | 1 to 100
